Data reported in the NIST ThermoML archive (doi:10.1016/j.jct.2013.03.020).
Several values for one entry are separate records, joined by “and”; a condition that tells them apart may be missing. Identical values can stand only once.

Details: Liquid, Closed cell (Static) method

CCN1CCOCC1 [4-ethylmorpholine]
Details	vapor or sublimation pressure
283.15 K	0.5816 kPa
283.98 K	0.6293 kPa
293.15 K	1.083 kPa
293.93 K	1.142 kPa
303.15 K	1.918 kPa
303.86 K	1.985 kPa and 1.989 kPa
313.15 K	3.253 kPa
323.15 K	5.304 kPa
323.78 K	5.303 kPa
333.15 K	8.353 kPa
333.91 K	8.702 kPa
343.15 K	12.75 kPa
343.88 K	13.07 kPa
353.15 K	18.92 kPa
353.9 K	18.88 kPa
363.15 K	27.37 kPa
363.86 K	28.78 kPa

O [water]
Details	vapor or sublimation pressure
273.15 K	0.5798 kPa
283.15 K	1.183 kPa
293.15 K	2.277 kPa
303.15 K	4.165 kPa
313.15 K	7.284 kPa
323.15 K	12.23 kPa
333.15 K	19.82 kPa
343.15 K	31.09 kPa and 30.82 kPa
353.15 K	47.34 kPa
363.15 K	70.22 kPa

CN(C)CCO [2-(N,N-dimethylamino)ethanol]
Details	vapor or sublimation pressure
273.15 K	0.142 kPa
273.86 K	0.149 kPa
282.97 K	0.2938 kPa and 0.2945 kPa
283.15 K	0.2979 kPa
292.89 K	0.5824 kPa
292.91 K	0.5823 kPa and 0.5822 kPa
293.15 K	0.59 kPa
302.89 K	1.095 kPa and 1.096 kPa
303.15 K	1.11 kPa
312.86 K	1.963 kPa
313.15 K	1.993 kPa
323.03 K	3.392 kPa
323.15 K	3.435 kPa
333.06 K	5.626 kPa
333.15 K	5.705 kPa
343.05 K	9.047 kPa
343.15 K	9.165 kPa
353.04 K	14.45 kPa
353.15 K	14.29 kPa
363.1 K	21.59 kPa
363.15 K	21.66 kPa

CC(C)N(C)C [N,N-dimethylisopropylamine]
Details	vapor or sublimation pressure
273.15 K	6.65 kPa
274.58 K	7.183 kPa and 7.185 kPa and 7.197 kPa
283.15 K	11.11 kPa
283.86 K	11.39 kPa
293.15 K	17.77 kPa
293.81 K	18.3 kPa and 18.39 kPa
303.15 K	27.37 kPa
303.82 K	28.18 kPa
313.15 K	40.76 kPa
313.79 K	41.76 kPa and 41.79 kPa and 41.8 kPa
323.15 K	58.9 kPa
324.02 K	60.66 kPa and 60.72 kPa
333.15 K	82.89 kPa
334.05 K	85.36 kPa [middle of 4 runs]
